Measured values: publication PMC9898036, “VIP152 is a selective CDK9 inhibitor with pre-clinical in vitro and in vivo efficacy in chronic lymphocytic leukemia” (Leukemia, 2022)

Legend:
Test in all cases: DiscoverX KINOMEscan kinase profiling (468 assays)
Assay type in all cases: binding
human kinome [1] = target: human kinome (Homo sapiens, UniProt P51817); details: read-out: Percent Control
Procedure, shortened: (§1)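 DNA-tagged kinases competed for immobilized biotinylated ligands on streptavidin magnetic beads, with bound kinase quantified by qPCR. VIP152 in DMSO was tested against a DMSO control.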

human kinome [2] = target: human kinome (Homo sapiens, UniProt Q02156); details: read-out: Percent Control
Chain of human kinome (Homo sapiens, UniProt Q02156) (Q02156 whole entry): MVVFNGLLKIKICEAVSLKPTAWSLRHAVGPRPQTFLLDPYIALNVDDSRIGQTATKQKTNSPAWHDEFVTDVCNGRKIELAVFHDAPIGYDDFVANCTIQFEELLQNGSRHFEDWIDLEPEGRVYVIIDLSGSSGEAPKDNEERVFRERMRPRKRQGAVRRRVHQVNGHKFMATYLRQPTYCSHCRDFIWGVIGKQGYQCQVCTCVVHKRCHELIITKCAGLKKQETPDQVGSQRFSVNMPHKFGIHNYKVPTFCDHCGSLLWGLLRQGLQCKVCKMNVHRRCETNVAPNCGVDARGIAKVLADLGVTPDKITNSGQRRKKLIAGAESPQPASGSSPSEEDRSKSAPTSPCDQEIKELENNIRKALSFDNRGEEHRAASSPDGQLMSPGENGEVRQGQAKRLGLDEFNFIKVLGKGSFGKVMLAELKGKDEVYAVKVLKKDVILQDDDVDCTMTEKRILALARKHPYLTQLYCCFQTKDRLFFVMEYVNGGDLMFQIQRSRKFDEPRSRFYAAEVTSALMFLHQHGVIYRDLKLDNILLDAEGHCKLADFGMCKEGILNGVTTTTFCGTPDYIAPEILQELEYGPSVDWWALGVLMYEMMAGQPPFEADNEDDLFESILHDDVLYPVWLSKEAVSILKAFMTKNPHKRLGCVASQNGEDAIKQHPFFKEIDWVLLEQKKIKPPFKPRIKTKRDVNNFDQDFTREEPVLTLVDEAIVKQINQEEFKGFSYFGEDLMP
Procedure, shortened: as §1

human kinome [3] = target: human kinome (Homo sapiens, UniProt P42684); details: ABL2; 100 nM; read-out: Percent Control
Procedure, shortened: as §1

human kinome [4] = target: human kinome (Homo sapiens, UniProt P31751); details: AKT2; 100 nM; read-out: Percent Control
Procedure, shortened: as §1

human kinome [5] = target: human kinome (Homo sapiens, UniProt Q9HBY8); details: kinase SGK2 (Entrez SGK2); compound concentration 1000 nM; read-out: Percent Control
Procedure, shortened: as §1

human kinome [6] = target: human kinome (Homo sapiens, UniProt Q56UN5); details: kinase YSK4 (Entrez MAP3K19); compound concentration 1000 nM; read-out: Percent Control
Procedure, shortened: as §1

human kinome [7] = target: human kinome (Homo sapiens, UniProt P00533, L858R/T790M); details: EGFR(L858R,T790M); 100 nM; read-out: Percent Control
Procedure, shortened: as §1

human kinome [8] = target: human kinome (Homo sapiens, UniProt Q9UF33); details: EPHA6; 100 nM; read-out: Percent Control
Procedure, shortened: as §1

human kinome [9] = target: human kinome (Homo sapiens, UniProt O75914); details: read-out: Percent Control
Chain of human kinome (Homo sapiens, UniProt O75914) (O75914 whole entry): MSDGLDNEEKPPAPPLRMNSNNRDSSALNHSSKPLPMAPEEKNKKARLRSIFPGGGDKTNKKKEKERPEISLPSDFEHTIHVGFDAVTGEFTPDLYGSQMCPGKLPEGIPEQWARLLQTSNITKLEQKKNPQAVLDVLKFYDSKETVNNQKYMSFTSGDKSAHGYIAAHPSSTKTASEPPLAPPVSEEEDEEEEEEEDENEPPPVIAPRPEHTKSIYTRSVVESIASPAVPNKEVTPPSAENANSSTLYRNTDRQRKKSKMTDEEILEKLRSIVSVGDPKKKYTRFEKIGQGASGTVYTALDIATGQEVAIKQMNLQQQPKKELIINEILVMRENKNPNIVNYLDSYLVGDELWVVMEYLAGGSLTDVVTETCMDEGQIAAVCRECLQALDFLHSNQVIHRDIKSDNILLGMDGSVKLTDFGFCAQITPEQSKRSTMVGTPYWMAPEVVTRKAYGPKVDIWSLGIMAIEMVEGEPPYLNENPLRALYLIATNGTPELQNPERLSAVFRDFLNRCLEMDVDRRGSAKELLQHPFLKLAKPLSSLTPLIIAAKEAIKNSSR
Procedure, shortened: as §1

human kinome [10] = target: human kinome (Homo sapiens, UniProt P17612); details: read-out: Percent Control
Procedure, shortened: as §1

human kinome [11] = target: human kinome (Homo sapiens, UniProt Q9UKI8); details: kinase TLK1 (Entrez TLK1); compound concentration 1000 nM; read-out: Percent Control
Procedure, shortened: as §1

human kinome [12] = target: human kinome (Homo sapiens, UniProt Q13557); details: CAMK2D; 100 nM; read-out: Percent Control
Procedure, shortened: as §1

human kinome [13] = target: human kinome (Homo sapiens, UniProt O00750); details: read-out: Percent Control
Chain of human kinome (Homo sapiens, UniProt O00750) (O00750 whole entry): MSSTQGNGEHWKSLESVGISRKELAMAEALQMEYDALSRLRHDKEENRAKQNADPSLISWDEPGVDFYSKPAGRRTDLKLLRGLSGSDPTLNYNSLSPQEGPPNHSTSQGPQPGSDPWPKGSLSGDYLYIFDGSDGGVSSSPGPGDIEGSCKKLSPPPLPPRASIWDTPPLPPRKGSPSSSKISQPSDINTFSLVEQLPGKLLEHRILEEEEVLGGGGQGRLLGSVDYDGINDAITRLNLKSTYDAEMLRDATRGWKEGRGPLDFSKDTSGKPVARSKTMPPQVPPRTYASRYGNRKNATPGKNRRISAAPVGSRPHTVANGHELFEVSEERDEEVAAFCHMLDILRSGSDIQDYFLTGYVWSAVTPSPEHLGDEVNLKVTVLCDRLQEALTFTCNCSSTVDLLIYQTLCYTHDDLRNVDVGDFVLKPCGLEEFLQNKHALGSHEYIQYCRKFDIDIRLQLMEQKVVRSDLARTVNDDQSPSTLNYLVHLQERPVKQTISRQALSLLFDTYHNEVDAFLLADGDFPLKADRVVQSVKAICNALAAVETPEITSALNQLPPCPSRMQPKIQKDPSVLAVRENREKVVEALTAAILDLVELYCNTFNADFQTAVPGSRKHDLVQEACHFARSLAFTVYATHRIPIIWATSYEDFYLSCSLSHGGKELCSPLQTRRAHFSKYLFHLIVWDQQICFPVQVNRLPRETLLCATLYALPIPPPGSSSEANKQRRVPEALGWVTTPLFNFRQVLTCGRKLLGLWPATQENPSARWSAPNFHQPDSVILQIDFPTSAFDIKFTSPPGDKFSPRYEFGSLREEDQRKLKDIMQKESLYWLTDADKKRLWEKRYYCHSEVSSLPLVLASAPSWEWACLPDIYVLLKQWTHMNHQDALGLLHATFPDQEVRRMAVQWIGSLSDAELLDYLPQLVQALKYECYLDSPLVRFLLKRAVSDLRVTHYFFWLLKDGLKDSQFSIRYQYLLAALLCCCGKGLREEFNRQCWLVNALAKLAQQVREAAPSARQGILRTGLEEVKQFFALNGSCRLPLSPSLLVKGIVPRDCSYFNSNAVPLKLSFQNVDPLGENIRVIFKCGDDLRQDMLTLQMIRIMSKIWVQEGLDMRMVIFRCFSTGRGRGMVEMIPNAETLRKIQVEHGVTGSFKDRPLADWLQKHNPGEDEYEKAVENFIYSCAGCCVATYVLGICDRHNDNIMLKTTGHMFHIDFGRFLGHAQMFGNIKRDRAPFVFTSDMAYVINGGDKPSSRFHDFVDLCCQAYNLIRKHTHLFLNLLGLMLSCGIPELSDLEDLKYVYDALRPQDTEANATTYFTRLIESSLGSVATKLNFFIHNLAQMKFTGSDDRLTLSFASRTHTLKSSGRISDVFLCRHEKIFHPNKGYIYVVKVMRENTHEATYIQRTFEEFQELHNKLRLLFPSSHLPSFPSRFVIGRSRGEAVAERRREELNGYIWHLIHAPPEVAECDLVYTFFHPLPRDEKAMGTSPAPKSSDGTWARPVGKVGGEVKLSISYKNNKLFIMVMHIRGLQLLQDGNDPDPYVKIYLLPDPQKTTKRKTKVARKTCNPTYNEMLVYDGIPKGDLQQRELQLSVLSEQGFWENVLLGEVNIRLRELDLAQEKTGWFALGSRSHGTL
Procedure, shortened: as §1

human kinome [14] = target: human kinome (Homo sapiens, UniProt Q8N568); details: DCAMKL2 (Entrez DCLK2); 100 nM; read-out: Percent Control
Procedure, shortened: as §1

human kinome [15] = target: human kinome (Homo sapiens, UniProt Q6XUX3); details: kinase RIPK5 (Entrez DSTYK); compound concentration 1000 nM; read-out: Percent Control
Procedure, shortened: as §1

human kinome [16] = target: human kinome (Homo sapiens, UniProt Q13470); details: kinase TNK1 (Entrez TNK1); compound concentration 1000 nM; read-out: Percent Control
Procedure, shortened: as §1

human kinome [17] = target: human kinome (Homo sapiens, UniProt Q9P286); details: read-out: Percent Control
Chain of human kinome (Homo sapiens, UniProt Q9P286) (Q9P286 whole entry): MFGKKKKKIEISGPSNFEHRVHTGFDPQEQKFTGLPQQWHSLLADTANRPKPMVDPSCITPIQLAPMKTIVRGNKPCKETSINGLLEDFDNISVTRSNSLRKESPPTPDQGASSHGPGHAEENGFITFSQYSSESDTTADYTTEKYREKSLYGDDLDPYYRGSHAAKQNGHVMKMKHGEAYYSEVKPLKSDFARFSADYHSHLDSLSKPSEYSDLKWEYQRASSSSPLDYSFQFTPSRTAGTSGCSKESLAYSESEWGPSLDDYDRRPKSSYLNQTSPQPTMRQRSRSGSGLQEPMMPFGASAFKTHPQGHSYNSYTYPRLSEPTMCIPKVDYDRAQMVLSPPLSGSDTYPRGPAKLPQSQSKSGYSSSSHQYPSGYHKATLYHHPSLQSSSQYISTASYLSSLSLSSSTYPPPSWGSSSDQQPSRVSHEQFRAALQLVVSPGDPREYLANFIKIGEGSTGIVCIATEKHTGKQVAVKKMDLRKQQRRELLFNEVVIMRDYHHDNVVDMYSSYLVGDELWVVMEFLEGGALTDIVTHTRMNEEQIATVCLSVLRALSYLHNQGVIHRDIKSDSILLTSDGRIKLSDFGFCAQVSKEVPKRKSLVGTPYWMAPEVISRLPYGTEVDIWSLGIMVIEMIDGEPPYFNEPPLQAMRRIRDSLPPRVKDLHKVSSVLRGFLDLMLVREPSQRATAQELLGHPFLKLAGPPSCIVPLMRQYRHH
Procedure, shortened: as §1

human kinome [18] = target: human kinome (Homo sapiens, UniProt Q13627); details: DYRK1A; 100 nM; read-out: Percent Control
Procedure, shortened: as §1

human kinome [19] = target: human kinome (Homo sapiens, UniProt Q02779); details: MLK2 (Entrez MAP3K10); 100 nM; read-out: Percent Control
Procedure, shortened: as §1

human kinome [20] = target: human kinome (Homo sapiens, UniProt O14733); details: MKK7 (Entrez MAP2K7); 100 nM; read-out: Percent Control
Procedure, shortened: as §1

human kinome [21] = target: human kinome (Homo sapiens, UniProt Q9NRH2); details: kinase SNRK (Entrez SNRK); compound concentration 1000 nM; read-out: Percent Control
Procedure, shortened: as §1

human kinome [22] = target: human kinome (Homo sapiens, UniProt Q13153); details: read-out: Percent Control
Chain of human kinome (Homo sapiens, UniProt Q13153) (Q13153 whole entry): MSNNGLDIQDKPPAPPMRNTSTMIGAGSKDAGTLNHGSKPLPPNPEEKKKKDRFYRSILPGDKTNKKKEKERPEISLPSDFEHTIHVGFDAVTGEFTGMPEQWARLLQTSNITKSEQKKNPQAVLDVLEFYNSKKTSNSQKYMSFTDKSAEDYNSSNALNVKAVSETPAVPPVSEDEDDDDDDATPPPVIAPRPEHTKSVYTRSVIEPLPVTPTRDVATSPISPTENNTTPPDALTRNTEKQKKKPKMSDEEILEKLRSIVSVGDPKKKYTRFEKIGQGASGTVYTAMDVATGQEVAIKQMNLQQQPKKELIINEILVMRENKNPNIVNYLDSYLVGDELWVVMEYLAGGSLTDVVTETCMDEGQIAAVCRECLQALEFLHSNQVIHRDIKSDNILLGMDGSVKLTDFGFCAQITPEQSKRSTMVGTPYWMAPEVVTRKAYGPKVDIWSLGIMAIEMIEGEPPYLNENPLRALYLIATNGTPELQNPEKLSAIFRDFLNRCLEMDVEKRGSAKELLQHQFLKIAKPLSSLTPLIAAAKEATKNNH
Procedure, shortened: as §1

human kinome [23] = target: human kinome (Homo sapiens, UniProt Q8IU85); details: CAMK1D; 100 nM; read-out: Percent Control
Procedure, shortened: as §1

human kinome [24] = target: human kinome (Homo sapiens, UniProt Q13188); details: MST2 (Entrez STK3); 100 nM; read-out: Percent Control
Chain of human kinome (Homo sapiens, UniProt Q13188) (Q13188 whole entry): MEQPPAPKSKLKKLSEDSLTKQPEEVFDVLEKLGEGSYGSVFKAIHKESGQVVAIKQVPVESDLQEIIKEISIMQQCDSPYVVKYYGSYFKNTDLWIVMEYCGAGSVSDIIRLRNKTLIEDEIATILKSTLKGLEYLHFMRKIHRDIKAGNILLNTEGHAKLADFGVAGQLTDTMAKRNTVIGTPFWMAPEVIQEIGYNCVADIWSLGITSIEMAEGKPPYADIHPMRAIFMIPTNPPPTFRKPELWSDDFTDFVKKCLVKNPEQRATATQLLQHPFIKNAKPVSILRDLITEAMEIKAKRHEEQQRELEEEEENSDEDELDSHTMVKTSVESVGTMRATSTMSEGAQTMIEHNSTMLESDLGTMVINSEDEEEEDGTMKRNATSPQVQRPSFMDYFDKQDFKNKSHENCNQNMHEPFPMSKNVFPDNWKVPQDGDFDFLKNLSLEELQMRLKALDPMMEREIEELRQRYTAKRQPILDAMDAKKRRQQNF
Procedure, shortened: as §1

human kinome [25] = target: human kinome (Homo sapiens, UniProt Q9Y3S1); details: kinase WNK2 (Entrez WNK2); compound concentration 1000 nM; read-out: Percent Control
Procedure, shortened: as §1

human kinome [26] = target: human kinome (Homo sapiens, UniProt P36507); details: MEK2 (Entrez MAP2K2); 100 nM; read-out: Percent Control
Procedure, shortened: as §1

human kinome [27] = target: human kinome (Homo sapiens, UniProt Q9H2K8); details: kinase TAOK3 (Entrez TAOK3); compound concentration 1000 nM; read-out: Percent Control
Procedure, shortened: as §1

human kinome [28] = target: human kinome (Homo sapiens, UniProt Q8NI60); details: ADCK3 (Entrez CABC1); 100 nM; read-out: Percent Control
Procedure, shortened: as §1

human kinome [29] = target: human kinome (Homo sapiens, UniProt Q04759); details: read-out: Percent Control
Procedure, shortened: as §1

Chain of human kinome (Homo sapiens, UniProt P51817) (P51817 whole entry): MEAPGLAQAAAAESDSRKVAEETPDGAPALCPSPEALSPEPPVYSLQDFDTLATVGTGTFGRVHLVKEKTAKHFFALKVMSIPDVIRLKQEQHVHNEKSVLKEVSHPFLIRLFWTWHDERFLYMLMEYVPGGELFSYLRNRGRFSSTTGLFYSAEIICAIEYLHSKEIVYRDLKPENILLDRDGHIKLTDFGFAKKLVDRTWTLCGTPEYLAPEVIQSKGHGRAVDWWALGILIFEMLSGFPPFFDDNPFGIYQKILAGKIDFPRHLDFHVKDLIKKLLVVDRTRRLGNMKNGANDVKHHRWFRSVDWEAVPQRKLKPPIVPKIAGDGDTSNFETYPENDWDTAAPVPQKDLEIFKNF

## COc1cc(F)ccc1-c1cc(Nc2cc(CS(C)(=N)=O)ccn2)ncc1F (stereo not shown) [VIP152]
Human kinome [1]; PRKX, 100 nM
  remaining binding at 0.1 µM: 100%
Human kinome [1]; kinase PRKX (Entrez PRKX), compound concentration 1000 nM
  remaining binding at 1 µM: 99%
Human kinome [2]; PRKCE, 100 nM
  remaining binding at 0.1 µM: 58%
Human kinome [2]; kinase PRKCE (Entrez PRKCE), compound concentration 1000 nM
  remaining binding at 1 µM: 99%
Human kinome [3]
  remaining binding at 0.1 µM: 100%
Human kinome [4]
  remaining binding at 0.1 µM: 100%
Human kinome [5]
  remaining binding at 1 µM: 73%
Human kinome [6]
  remaining binding at 1 µM: 19%
Human kinome [7]
  remaining binding at 0.1 µM: 93%
Human kinome [8]
  remaining binding at 0.1 µM: 100%
Human kinome [9]; PAK3, 100 nM
  remaining binding at 0.1 µM: 100%
Human kinome [9]; kinase PAK3 (Entrez PAK3), compound concentration 1000 nM
  remaining binding at 1 µM: 62%
Human kinome [10]; PKAC-alpha (Entrez PRKACA), 100 nM
  remaining binding at 0.1 µM: 97%
Human kinome [10]; kinase PKAC-alpha (Entrez PRKACA), compound concentration 1000 nM
  remaining binding at 1 µM: 100%
Human kinome [11]
  remaining binding at 1 µM: 89%
Human kinome [12]
  remaining binding at 0.1 µM: 100%
Human kinome [13]; PIK3C2B, 100 nM
  remaining binding at 0.1 µM: 100%
Human kinome [13]; kinase PIK3C2B (Entrez PIK3C2B), compound concentration 1000 nM
  remaining binding at 1 µM: 90%
Human kinome [14]
  remaining binding at 0.1 µM: 100%
Human kinome [15]
  remaining binding at 1 µM: 42%
Human kinome [16]
  remaining binding at 1 µM: 82%
Human kinome [17]; PAK7, 100 nM
  remaining binding at 0.1 µM: 100%
Human kinome [17]; kinase PAK7 (Entrez PAK7), compound concentration 1000 nM
  remaining binding at 1 µM: 78%
Human kinome [18]
  remaining binding at 0.1 µM: 64%
Human kinome [19]
  remaining binding at 0.1 µM: 100%
Human kinome [20]
  remaining binding at 0.1 µM: 86%
Human kinome [21]
  remaining binding at 1 µM: 90%
Human kinome [22]; PAK1, 100 nM
  remaining binding at 0.1 µM: 100%
Human kinome [22]; kinase PAK1 (Entrez PAK1), compound concentration 1000 nM
  remaining binding at 1 µM: 100%
Human kinome [23]
  remaining binding at 0.1 µM: 100%
Human kinome [24]
  remaining binding at 0.1 µM: 99%
Human kinome [25]
  remaining binding at 1 µM: 85%
Human kinome [26]
  remaining binding at 0.1 µM: 100%
Human kinome [27]
  remaining binding at 1 µM: 57%
Human kinome [28]
  remaining binding at 0.1 µM: 100%
Human kinome [29]; PRKCQ, 100 nM
  remaining binding at 0.1 µM: 100%
Human kinome [29]; kinase PRKCQ (Entrez PRKCQ), compound concentration 1000 nM
  remaining binding at 1 µM: 62%
